The record followed here is US8129398B2 (priority 2008, dated 2012).

Where only a bound is given, the exact number is not on record here.

In this assay the target is T1, HIV-integrase (Human immunodeficiency virus type 1 group M subtype B, UniProt P12497).
T1 construct: Recombinant integrase (0.26 ng) was incubated with the beads
Kind of assay: HIV-Integrase Inhibition Activity (SPA bead integration assay with P33 labeled target DNA). The note with it: recombinant integrase, class symbols; read-out: in vitro activity. The class given is biochemical. The procedure, abridged: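 Strand integration read as bead-proximity CPM after P33 target DNA (0.1 fmol) and inhibitor were added to washed integrase–substrate DNA complexes on SPA beads. Enzyme bound 90 min at 37° C; EDTA (10 mM final) terminated reaction; IC50 graded A/B/C.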
With `CN(C(=O)N(C)C12CCC(CC1)Cn1c2nc(C(=O)NCc2ccc(F)cc2)c(O)c1=O)c1ccccn1` [Example 328, 7,10-Ethanopyrimido[1,2-a]azepine-2-carboxamide, N-[(4-fluorophenyl)methyl]-4,6,7,8,9,10-hexahydro-3-hydroxy-10-[methyl[(methyl-2-pyridinylamino)carbonyl]amino]-4-oxo-], the IC50 was 10 to 100 nM. In the case of `Cc1cc(C(=O)N2CCN(C(=O)C(=O)NC34CCC(CC3)Cn3c4nc(C(=O)NCc4ccc(F)cc4)c(O)c3=O)CC2)no1` [Example 139, N-(4-Fluorobenzyl)-3-hydroxy-10-(((4-((5-methyl-3-isoxazolyl)carbonyl)-1-piperazinyl)(oxo)acetyl)amino)-4-oxo-4,6,7,8,9,10-hexahydro-7,10-ethanopyrimido[1,2-a]azepine-2-carboxamide], the IC50 was less than 10 nM. The result for `O=C(NC12CCC(Cn3c1nc(C(=O)NCc1ccc(F)c(Cl)c1)c(O)c3=O)C2)OCc1ccccc1` (centres unmarked) [Example 194, Carbamic acid, [2-[[[(3-chloro-4-fluorophenyl)methyl]amino]carbonyl]-6,7,8,9-tetrahydro-3-hydroxy-4-oxo-7,10-methanopyrimido[1,2-a]azepin-10(4H)-yl]-, phenylmethyl ester] reads less than 10 nM. The result for `CO[C@H]1C[C@@H](C(=O)NC23CCC(CC2)Cn2c3nc(C(=O)NCc3ccc(F)c(C)c3)c(O)c2=O)N(C(=O)c2nnc(C)o2)C1` [Example 297, 7,10-Ethanopyrimido[1,2-a]azepine-2-carboxamide, N-[(4-fluoro-3-methylphenyl)methyl]-4,6,7,8,9,10-hexahydro-3-hydroxy-10-[[[(2S,4S)-4-methoxy-1-[(5-methyl-1,3,4-oxadiazol-2-yl)carbonyl]-2-pyrrolidinyl]carbonyl]amino]-4-oxo-] reads less than 10 nM; that for `O=C(NCc1ccc(F)cc1)c1nc2n(c(=O)c1O)CC1CCC2(NC(=O)C2CCCN2S(=O)(=O)c2ncn[nH]2)CC1` (centres unmarked) [Example 409], less than 10 nM.

Consider `CN(C)C(=O)C(=O)NC12CCC(CC1)Cn1c2nc(C(=O)NCc2ccc(N(C)C)cc2)c(O)c1=O` [Example 378], for which the IC50 fell in the range of 10 to 100 nM. The result for `CN(C)C(=O)C(=O)NC12CCC(CC1)Cn1c2nc(C(=O)NCc2cccs2)c(O)c1=O` [Example 361] reads less than 10 nM.

Turning to `Cc1cc(CNC(=O)c2nc3n(c(=O)c2O)CC2CCC3(NC(=O)C(=O)N(C)CC(F)(F)F)CC2)ccc1F` [Example 51, N′-(2-((4-Fluoro-3-methylbenzyl)carbamoyl)-3-hydroxy-4-oxo-6,7,8,9-tetrahydro-7,10-ethanopyrimido[1,2-a]azepin-10(4H)-yl)-N-methyl-N-(2,2,2-trifluoroethyl)ethanediamide], the IC50 was less than 10 nM.

In the case of `CN(CC1CCCO1)C(=O)C(=O)N(C)C12CCC(CC1)Cn1c2nc(C(=O)NCc2ccc(F)cc2)c(O)c1=O` (centres unmarked) [Example 165, N-(2-((4-Fluorobenzyl)carbamoyl)-3-hydroxy-4-oxo-6,7,8,9-tetrahydro-7,10-ethanopyrimido[1,2-a]azepin-10(4H)-yl)-N,N′-dimethyl-N′-(tetrahydro-2-furanylmethyl)ethanediamide], the IC50 was less than 10 nM. As to `Cn1nnnc1C(=O)NC12CCC(CC1)Cn1c2nc(C(=O)NCc2ccc(F)cc2)c(O)c1=O` [Example 249, 7,10-Ethanopyrimido[1,2-a]azepine-2-carboxamide, N-[(4-fluorophenyl)methyl]-4,6,7,8,9,10-hexahydro-3-hydroxy-10-[[(1-methyl-1H-tetrazol-5-yl)carbonyl]amino]-4-oxo-], the IC50 was less than 10 nM. The result for `O=C(N[C@@]12CC[C@@H](CCn3c1nc(C(=O)NCc1ccc(F)cc1)c(O)c3=O)C2)C(=O)N1CC[C@@H](F)C1` [Example 418, 8,1,1-Methano-4H-pyrimido[1,2-a]azocine-2-carboxamide, N-[(4-fluorophenyl)methyl]-11-[[2-[(3R)-3-fluoro-1-pyrrolidinyl]-1,2-dioxoethyl]amino]-6,7,8,9,10,11-hexahydro-3-hydroxy-4-oxo-, (8S,11R)—] reads less than 10 nM.
